Experimental data taken from publication PMC11871066, “Structure-based discovery of hydrocarbon-stapled paxillin peptides that block FAK scaffolding in cancer” (Nature Communications, 2025).
Read-outs that look alike come from different tables or passages of the source. Each block holds one compound with its values, some of them ahead of it. Bridge positions count the residues as written; N and C are the ends. Square brackets hold non-standard residues; d marks the D form. Peptide text beside a SMILES is read from it. R8 = C=CCCCCCC[C@@](C)(N)C(=O)O; S5 = C=CCCC[C@](C)(N)C(=O)O

Experiments:
trypsin [1] = assay: Trypsin proteolytic resistance assay; conditions: immobilized trypsin-agarose resin
Description: (§1) Cell permeability of peptide drugs was determined by fluorescence measurement of TAMRA-labeled peptides in 96-well plates and ClarioStar Plus plate reader using BMG ClarioStar MARS software (version 4.20). […] Percent uptake was calculated as background-subtracted fluorescence absorbed by cells/fluorescence of peptide in media-only wells, then made relative to TAMRA-Alkyne. Three biological replicates (n = 3) were performed per cell line per treatment group. Peptide proteolysis was measured using immobilized Trypsin-agarose resin (Thermo Fisher) and quantification by LC-MS. […] In vivo pharmacokinetics were performed by the UACC Analytical Chemistry Shared Resource. […] The mice were fed NIH-31 irradiated pellets (Tekland Premier, Madison, Wisconsin), and reverse osmosis water was freely available. […] The average plasma concentration versus time data were analyzed using PKSolver (version 2.0) by a noncompartmental approach.

trypsin [2] = assay: in vitro; conditions: isolated enzyme trypsin
Description: as §1

trypsin [3] = target: trypsin (Bos taurus, UniProt P00760)
Description: as §1

[4] = Circular dichroism, % alpha-helicity; assay type: physicochemical; conditions: CD, 20 mM NaH2PO4 pH 7.0, 20 °C, CDSSTR
Description: CD experiments were performed on a Jasco J-815 CD spectrometer equipped with a Jasco PTC-423S/15 temperature control and analysis utilizing Spectra Manager (version 2.0). Spectral measurements were made in quartz spectrophotometer cells with an optical cell path length of 1.0 mm (Starna Cells Inc.) using standard collection parameters: 20 °C, 190–260 nm, 0.5 nm step resolution, 50 nm/min scanning speed, 0.5 s response, 1 nm bandwidth, 8 accumulations. […] Secondary structure analysis, including % alpha-helicity, was performed using the CDSSTR method[58] on data reference set 4 basis spectra. The reliability of secondary structure predictions was quantified by the goodness-of-fit of the back-calculated spectrum to the experimental spectrum and reported as a normalized root-mean-square deviation (NRMSD).

FAK FAT domain = target: T1, FAK FAT domain (Homo sapiens, UniProt Q05397); assay: SPR binding to immobilized biotinylated FAK FAT
T1 sequence (Q05397 914-1045 limits assumed): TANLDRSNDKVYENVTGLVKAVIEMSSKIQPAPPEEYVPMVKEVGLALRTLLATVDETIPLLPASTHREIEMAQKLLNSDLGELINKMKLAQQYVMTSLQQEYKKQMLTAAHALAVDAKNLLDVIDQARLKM
Description: SPR binding studies were performed using biotinylated FAK FAT protein[51]. Briefly, SPR binding assays were performed on a ForteBio Pioneer FE SPR system using SPR running buffer (100 mM Tris-Cl pH 8.0, 200 mM NaCl, and 0.05% Tween-20). […] Desired immobilization levels were determined utilizing the following Eq. 1:1 Rmax=RproteinxMranalyte/MrproteinxVprotein where Rmax is the highest possible response of binding between the analyte and the protein, Rprotein is the change in response by the immobilization of the protein, Mr represents the mass of the analyte or protein, and Vprotein represents the number of binding sites on the protein. A target Rmax of approximately 100 RU was chosen.
All samples were diluted in the SPR buffer to a volume of 200 µl and injected using the OneStep gradient injection system at a flow rate of 150 µl/min. For a bulk standard control, a 3% (w\v) solution of sucrose in SPR buffer was used for injection. […] SPR data analysis utilized Qdat software (ForteBio, version 4.3.2 build 8) for normalization of the baseline prior to injection, channel alignment, and reference channel and blank subtraction.

[5] = target: T2, FAK FAT / TAMRA-paxillin LD2 L10D (Homo sapiens, UniProt Q05397); assay: Fluorescence polarization competition (FAK-paxillin) assay; assay type: binding
T2 construct: assay was performed using FAK FAT protein and TAMRA-LD2 L10D peptide
T2 sequence (Q05397 919-1052): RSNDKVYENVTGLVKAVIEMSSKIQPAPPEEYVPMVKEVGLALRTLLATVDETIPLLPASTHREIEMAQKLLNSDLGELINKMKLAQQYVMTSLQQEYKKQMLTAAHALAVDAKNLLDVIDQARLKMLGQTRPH
Description: The IC50 was calculated using a four-parameter dose-response inhibition model, with the bottom fit constrained to the lower plateau of the binding curve.

trypsin (Bos taurus, UniProt P00760), sequence (P00760 24-246): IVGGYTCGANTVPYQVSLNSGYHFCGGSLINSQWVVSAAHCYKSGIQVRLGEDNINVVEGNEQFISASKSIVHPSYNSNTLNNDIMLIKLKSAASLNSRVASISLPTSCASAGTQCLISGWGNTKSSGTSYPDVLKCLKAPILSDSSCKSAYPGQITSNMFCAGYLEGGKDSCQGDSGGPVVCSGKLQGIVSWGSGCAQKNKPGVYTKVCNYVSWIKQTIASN

SMILES: CC(=O)N[C@@H](CC(N)=O)C(=O)N[C@@H](CC(C)C)C(=O)N[C@@H](CO)C(=O)N[C@@H](CCC(=O)O)C(=O)N[C@@H](CC(C)C)C(=O)N[C@@H](CC(=O)O)C(=O)N[C@@H](CCCNC(=N)N)C(=O)N[C@@H](CC(C)C)C(=O)N[C@@H](CC(C)C)C(=O)N[C@@H](CC(C)C)C(=O)N[C@@H](CCC(=O)O)C(=O)N[C@@H](CC(C)C)C(=O)N[C@@H](CC(N)=O)C(N)=O [LD2, reference compound]
- remaining at 0.25 h, 100 µM (trypsin [1]): 76%
- remaining at 0.5 h, 100 µM (trypsin [1]): 70%
- remaining at 1 h, 100 µM (trypsin [1]): 29%
- remaining at 2 h, 100 µM (trypsin [1]): 16%
- remaining at 3 h, 100 µM (trypsin [1]): 16%
- remaining at 4 h, 100 µM (trypsin [1]): 13%
- remaining at 6 h, 100 µM (trypsin [1]): 0%
- remaining at 7 h, 100 µM (trypsin [1]): 0%
- remaining at 24 h, 100 µM (trypsin [1]): 0%
- remaining at 48 h, 100 µM (trypsin [1]): 0%
- half-life at 100 µM (trypsin [2]): 47 min
- trypsin proteolysis t1/2 (trypsin [3]): 46.8 min

- helical content [4]: 70%
- Kd (FAK FAT domain; Rep2, read-out: SPR (KD)): 35.6 µM
SMILES: C=CCCCCCC[C@@](C)(NC(=O)[C@H](CC(C)C)NC(=O)[C@H](CC(N)=O)NC(C)=O)C(=O)N[C@@H](CCC(=O)O)C(=O)N[C@@H](CC(C)C)C(=O)N[C@@H](CC(=O)O)C(=O)N[C@@H](CCCNC(=N)N)C(=O)N[C@@H](CC(C)C)C(=O)N[C@@H](CC(C)C)C(=O)N[C@@](C)(CCCC=C)C(=O)N[C@@H](CCC(=O)O)C(=O)N[C@@H](CC(C)C)C(=O)N[C@@H](CC(N)=O)C(N)=O [compound 2013]

- Kd (FAK FAT domain; Rep1, read-out: SPR (KD)): > 200 µM
- Kd (FAK FAT domain; Rep2, read-out: SPR (KD)): > 200 µM
- Kd (FAK FAT domain; Rep3, read-out: SPR (KD)): > 200 µM
- Kd (FAK FAT domain; Rep4, read-out: SPR (KD)): > 200 µM
- SPR KD (FAK FAT domain; one-site kinetic fit, mean ± SD of n = 2-5 biological replicates, Tris pH 8.0): did not bind FAT
- Kd (FAK FAT domain; one-site kinetic fit, mean ± SD of n = 2-5 biological replicates, Tris pH 8.0, read-out: SPR KD): > 200 µM
SMILES: CC(=O)N[C@@H](CC(N)=O)C(=O)N[C@@H](CC(C)C)C(=O)N[C@]1(C)CCCCCCC=CCCC[C@@](C)(C(=O)N[C@@H](CCC(=O)O)C(=O)N[C@@H](CCC(=O)O)C(=O)N[C@@H](CC(N)=O)C(N)=O)NC(=O)[C@H](CC(C)C)NC(=O)[C@H](CC(C)C)NC(=O)[C@H](CCCNC(=N)N)NC(=O)[C@H](CC(=O)O)NC(=O)[C@H](CCC(=O)O)NC(=O)[C@H](CCC(=O)O)NC1=O [compound 2014] (Ac-NL[R8]EEDRLL[S5]EEN-NH2; staple 3-10)
- FP Ki ([5]; 25 µM FAT, 0.1 µM probe, 3 h, mean ± SD, n = 3): did not bind FAT
- Ki ([5]; Rep1, read-out: FP (Ki) data): > 1250 µM
